Data: a compilation of properties of binary mixtures (doi:10.1016/j.jct.2020.106150)

Test: xn = mol fraction of the nth substance listed
Conditions: 100 kPa

CCCC[P+](C)(CCCC)CCCC.COS(=O)(=O)[O-] + O=Cc1ccco1
x1 = 1
Conditions | speed of sound [m/s] | viscosity [mPa·s]
293.15 K | 1563.7 | 730
298.15 K | 1546.1 | 520
303.15 K | 1529.7 | 380
308.15 K | 1514.3 | 290
313.15 K | 1499.2 | 217
318.15 K | 1485.7 | 169
323.15 K | 1472.1 | 133

O=Cc1ccco1 + CCCC[P+](C)(CCCC)CCCC.COS(=O)(=O)[O-]
Conditions | speed of sound [m/s] | viscosity [mPa·s]
293.15 K, x2 = 0 | 1459.1 | 1.62
293.15 K, x2 = 0.062 | 1482.3 | 2.5
293.15 K, x2 = 0.142 | 1505.9 | 21.3
293.15 K, x2 = 0.249 | 1527 | 65
293.15 K, x2 = 0.317 | 1541.2 | 95
293.15 K, x2 = 0.399 | 1556.3 | 134
293.15 K, x2 = 0.499 | 1563.9 | 190
293.15 K, x2 = 0.732 | 1568.5 | 400
293.15 K, x2 = 0.823 | 1566.1 | 500
293.15 K, x2 = 0.863 | 1565.4 | 560
293.15 K, x2 = 0.91 | 1563.4 | 610
293.15 K, x2 = 0.951 | 1563.1 | 660
298.15 K, x2 = 0 | 1440.2 | 1.48
298.15 K, x2 = 0.142 | 1489.6 | 10.1
298.15 K, x2 = 0.191 | 1499.2 | 17.1
298.15 K, x2 = 0.249 | 1511.1 | 31
298.15 K, x2 = 0.317 | 1525.5 | 47
298.15 K, x2 = 0.399 | 1540.4 | 72
298.15 K, x2 = 0.499 | 1548.6 | 101
298.15 K, x2 = 0.624 | 1555.2 | 160
298.15 K, x2 = 0.732 | 1552.5 | 270
298.15 K, x2 = 0.823 | 1550.2 | 350
298.15 K, x2 = 0.863 | 1549.3 | 390
298.15 K, x2 = 0.91 | 1547.2 | 440
298.15 K, x2 = 0.951 | 1546.2 | 480
303.15 K, x2 = 0 | 1422 | 1.36
303.15 K, x2 = 0.062 | 1454.5 | 2.14
303.15 K, x2 = 0.1 | 1463 | 3.1
303.15 K, x2 = 0.142 | 1472.1 | 4.1
303.15 K, x2 = 0.249 | 1493.1 | 8.7
303.15 K, x2 = 0.317 | 1508.5 | 25
303.15 K, x2 = 0.399 | 1524.3 | 40
303.15 K, x2 = 0.499 | 1534.6 | 55
303.15 K, x2 = 0.624 | 1539.8 | 93
303.15 K, x2 = 0.823 | 1533.5 | 260
303.15 K, x2 = 0.863 | 1532.5 | 290
303.15 K, x2 = 0.91 | 1531.2 | 320
303.15 K, x2 = 0.951 | 1530.1 | 350
308.15 K, x2 = 0 | 1403.8 | 1.26
308.15 K, x2 = 0.062 | 1434 | 1.99
308.15 K, x2 = 0.1 | 1443.5 | 3
308.15 K, x2 = 0.191 | 1466.5 | 5.6
308.15 K, x2 = 0.249 | 1476.3 | 7.7
308.15 K, x2 = 0.399 | 1508.3 | 20.4
308.15 K, x2 = 0.499 | 1515.9 | 34
308.15 K, x2 = 0.732 | 1521.5 | 133
308.15 K, x2 = 0.823 | 1519.8 | 194
308.15 K, x2 = 0.863 | 1517.1 | 217
308.15 K, x2 = 0.91 | 1516.5 | 241
308.15 K, x2 = 0.951 | 1515.5 | 270
313.15 K, x2 = 0.062 | 1418.8 | 1.76
313.15 K, x2 = 0.142 | 1438.3 | 3.6
313.15 K, x2 = 0.191 | 1449 | 5.6
313.15 K, x2 = 0.249 | 1459.5 | 6.7
313.15 K, x2 = 0.317 | 1475.5 | 8.8
313.15 K, x2 = 0.399 | 1492.4 | 11.5
313.15 K, x2 = 0.499 | 1501.5 | 17.9
313.15 K, x2 = 0.624 | 1509.5 | 43
313.15 K, x2 = 0.732 | 1505.7 | 101
313.15 K, x2 = 0.823 | 1504.6 | 146
313.15 K, x2 = 0.863 | 1502.3 | 165
313.15 K, x2 = 0.91 | 1500.7 | 185
313.15 K, x2 = 0.951 | 1500.5 | 201
318.15 K, x2 = 0 | 1367.8 | 1.09
318.15 K, x2 = 0.1 | 1410.1 | 2.5
318.15 K, x2 = 0.191 | 1431.3 | 4.3
318.15 K, x2 = 0.317 | 1457.6 | 7
318.15 K, x2 = 0.399 | 1476.4 | 9.9
318.15 K, x2 = 0.624 | 1494.6 | 32
318.15 K, x2 = 0.732 | 1493.4 | 81
318.15 K, x2 = 0.823 | 1489.6 | 116
318.15 K, x2 = 0.863 | 1488.6 | 130
318.15 K, x2 = 0.91 | 1488.2 | 144
318.15 K, x2 = 0.951 | 1486.5 | 158
323.15 K, x2 = 0 | 1349.9 | 1.02
323.15 K, x2 = 0.062 | 1386 | 1.53
323.15 K, x2 = 0.1 | 1394.5 | 2.3
323.15 K, x2 = 0.142 | 1402.1 | 3.3
323.15 K, x2 = 0.317 | 1443.6 | 6
323.15 K, x2 = 0.399 | 1460.6 | 8.6
323.15 K, x2 = 0.499 | 1469.8 | 18.6
323.15 K, x2 = 0.624 | 1479.9 | 27
323.15 K, x2 = 0.732 | 1479.9 | 73
323.15 K, x2 = 0.823 | 1478.2 | 99
323.15 K, x2 = 0.863 | 1477.2 | 110
323.15 K, x2 = 0.91 | 1476.1 | 117
323.15 K, x2 = 0.951 | 1474.6 | 126
